Measured values as given in US20190216886A1, “Topical Compositions And Methods For Treating Wounds” (priority 2014, published 2019).

Experiments:
S. pyogenes = assay: in vitro zone inhibition (disk diffusion) study; format: cell-based, Streptococcus pyogenes; settings: for Mean inhibition diameter: S. pyogenes (n = 6), 6 mm paper disks on Mueller Hinton Agar; for antimicrobial activity, in words: S. pyogenes, zone inhibition
Procedure: (§1) In vitro culture and sensitivity studies were performed on common microbes seen in acute and stubborn chronic wound cases. The particular microbes tested included streptococcus pyogenes, staphylococcus aureus, methicillin resistant staphylococcus aureus (MRSA) and, a fungus, candida albicans. Ten different strains of MRSA bacteria obtained from infected hospital patients were tested.
(§2) The different microbes were inoculated on Mueller Hinton Agar media in culture plates. […] However, genetically mutated resistant strains of staphylococcus have evolved and are now the cause of numerous infections because of their resistant nature to most antibiotics.

C. albicans = assay: in vitro zone inhibition (disk diffusion) study; format: cell-based, Candida albicans; settings: for Mean inhibition diameter: C. albicans (n = 6), 6 mm paper disks on Mueller Hinton Agar; for antimicrobial activity, in words: C. albicans (fungi), zone inhibition
Procedure: as §1, §2

S. aureus = assay: in vitro zone inhibition (disk diffusion) study; format: cell-based, Staphylococcus aureus; settings: for Mean inhibition diameter: S. aureus (n = 6), 6 mm paper disks on Mueller Hinton Agar; for antimicrobial activity, in words: non-resistant S. aureus, zone inhibition
Procedure: as §1, §2

MRSA = assay: in vitro zone inhibition (disk diffusion) study; format: cell-based, methicillin resistant staphylococcus aureus; settings: for Mean inhibition diameter: MRSA (10 strains, n = 30), 6 mm paper disks on Mueller Hinton Agar; for zone of inhibition, visual result: MRSA strain number 11, FIG. 7; for antimicrobial activity, in words: MRSA, zone inhibition
Procedure: as §1, §2

tinea pedis infection = assay: treatment of a patient with chronic tinea pedis; format: in vivo, human; settings: person, oral, after a month's treatment
Procedure: Twenty patients with a variety of chronic wound conditions that included diabetic foot ulcers, decubitus pressure ulcers, surgical wounds, toe fungus were treated for eight weeks by wound care physicians with a compounded topical pharmaceutical composition made from compendial ingredients.
Specifically, the test pharmaceutical composition for these studies was prepared by compounding: 25 parts 1% silver sulfadiazine cream: 25 parts 20% zinc oxide ointment; 15 parts triple antibiotic ointment; 25 parts 2% lidocaine viscous; 5 parts Vitamin E Oil (as 200 IU/gm final); and 5 parts Coenzyme Q10 (as 15 mg/gm final).
A case of tinea pedis was also reported in one of the patients. A person who had been suffering from chronic tinea pedis infection (athlete's foot) for over 10 months had tried numerous over-the-counter remedies with no success. They were prescribed the oral antibiotic terbinafine. […] The terbinafine was discontinued and the patient was placed on the test pharmaceutical formulation of the invention on Apr. 14, 2014. They returned for a follow-up with their physician about one week later on Apr. 22, 2014. […] The patient returned for a second follow up on Apr. 29, 2014 (FIG. 5B). The physician's report about 2 weeks after beginning treatment states: “Patient reports foot no longer itchy. Skin healing. […] Foot dry, healthy new tissue visualized”. […]

Cc1onc(-c2ccccc2)c1C(=O)N[C@@H]1C(=O)N2[C@@H]1SC(C)(C)[C@@H]2C(=O)O [Oxacillin, oxacillin]
Mean inhibition diameter (S. pyogenes): 30.2 mm
antimicrobial activity, in words (S. pyogenes): showed antimicrobial activity
Mean inhibition diameter (C. albicans): 0.0 mm
Mean inhibition diameter (S. aureus): 20.3 mm
antimicrobial activity, in words (S. aureus): showed antimicrobial activity
Mean inhibition diameter (MRSA): 0.0 mm
zone of inhibition, visual result (MRSA): lack of any zone inhibition

CN[C@H](CC(C)C)C(=O)N[C@H]1C(=O)N[C@@H](CC(N)=O)C(=O)N[C@H]2C(=O)N[C@H]3C(=O)N[C@H](C(=O)N[C@H](C(=O)O)c4cc(O)cc(O)c4-c4cc3ccc4O)[C@H](O)c3ccc(c(Cl)c3)Oc3cc2cc(c3O[C@@H]2O[C@H](CO)[C@@H](O)[C@H](O)[C@H]2O[C@H]2C[C@](C)(N)[C@H](O)[C@H](C)O2)Oc2ccc(cc2Cl)[C@H]1O [Vancomycin, vancomycin]
Mean inhibition diameter (S. pyogenes): 22.2 mm
antimicrobial activity, in words (S. pyogenes): potent activity
antimicrobial activity, in words (C. albicans): not effective
Mean inhibition diameter (C. albicans): 0.0 mm
Mean inhibition diameter (S. aureus): 17.3 mm
antimicrobial activity, in words (S. aureus): potent activity
Mean inhibition diameter (MRSA): 18.9 mm
zone of inhibition, visual result (MRSA): clear circular area of inhibition zone
antimicrobial activity, in words (MRSA): potent activity

COc1cccc(OC)c1C(=O)N[C@@H]1C(=O)N2[C@@H]1SC(C)(C)[C@@H]2C(=O)O [methicillin]
antimicrobial activity, in words (C. albicans): no activity
antimicrobial activity, in words (MRSA): no activity

CN(C/C=C/C#CC(C)(C)C)Cc1cccc2ccccc12 [terbinafine]
tinea pedis infection outcome (tinea pedis infection): no sign of reduction in the infection
